Patent US20260007681A1, “INDOLE DERIVATIVES AS ESTROGEN RECEPTOR DEGRADERS” (REGENTS OF THE UNIVERSITY OF MICHIGAN, priority 2022, published 2026)
pIC50: −log10 of the molar value.

What was measured:
Type in all cases: cell-based
ER [1] = biological target: T1, ER (Homo sapiens (Human), UniProt P03372); test: In-cell western blot analysis of relative ER percentage (Compounds B1-B278); settings: ER degradation, 16 hours, read-out: ICW DC50
Method: In-cell western blot analysis. Cells are seeded in multi-well plates (e.g., at 40,000 or 10,000 cells/well). Diluted compounds at certain concentration are added (final 0.5% DMSO) and cells are incubated for […] (e.g., 16 hours). Formaldehyde (e.g., PBS:FA=9:1) is added and followed by washing with PBS. The cells are blocked with Licor blocking buffer (Li-Cor). The relative ER percentage in treated cells are obtained by comparing the values of treated wells to those in untreated and DMSO-treated wells as 100%.
In-cell western blot analysis. a. seed cells in black-sided/clear bottom 96- or 384-well plates at 40,000 or 10,000 cells/well, overnight; b. add diluted compounds (final 0.5% DMSO), 16 hours. 16 h later, remove medium, add 100 μL or 25 μL of 3.7-4.0% formaldehyde (PBS:FA=9:1), RT 20 min, no shaking; c. wash with PBS, and permeabilized with 100 μL or 25 μL/well of 1×PBS+0.1% Triton X-100 10 minutes; d. block with 100 μL or 25 μL Licor blocking buffer (Li-Cor), RT 1 h, moderate shaking; d. Add 100 μL or 25 μL of anti-ER (cs-8644, 1:500-1,000)+GAPDH(Millipore MAB374, 1:1000) in Block+0.05% Tween 20. RT 2 h, gentle shaking. Negative control: cells plus secondary antibodies (no primary antibodies); e. wash×4 with PBS +0.05-0.1% Tween 20, gentel shaking; f. anti-rabbit-680 and anti-mouse-800 (both 1:1000 in LiCor block +0.05% Tween20, RT 1 h, gentle shaking, no light. LI-COR: 0.2% to reduce background; g. wash×4 with PBS+0.05% Tween 20, gental shaking; h. add 100 μL or 25 μL of PBS to each well and read on CLX plate reader. The relative ER percentage in treated cells were obtained by comparing the values of treated wells to those in untreated and DMSO-treated wells as 100%.

[2] = Cell growth assay (WST-8) (Compounds B1-B278); settings: 96 h; T47D cell line; WST-8, 4 days; read-out: Cell Growth Inhibition in T47D cell line IC50
Method: Cell Growth Assay. The cells are seeded at certain concentration (e.g., at 1500/well) in multi-well plates overnight. Cells are subsequently treated with the compounds. A certain period of time (e.g., 4 days) after the compound treatment, 10% WST-8 reagent is added to the culture medium and incubate under certain condiction (e.g., in a CO2 incubator at 37° C. for 2.5 hours). The absorbance is measured on each sample using a microplate reader at certain wavelength (e.g., 450 nm). The relative absorbance is calculated against the vehicle control from three individually repeats.
Cell Growth Assay. The cells were seeded at 1500/well in 96 well plates overnight. One day after the seeding, they were treated with indicated doses of compounds respectively. 4 days after the compound treatment, 10% WST-8 reagent was added to the culture medium and incubate in a CO2 incubator at 37° C. for 2.5 hours. Before reading, the plate was mixed gently on an orbital shaker for one minute to ensure homogeneous distribution of color. The absorbance was measured of each sample using a microplate reader at a wavelength of 450 nm. The relative absorbance was calculated against the vehicle control from three individually repeats.

ER [3] = biological target: T1, ER; test: Western blot analysis (Compounds B1-B278); settings: ER degradation by traditional Western blot; DC50 classes
Summary of the method: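 Compound-treated cells were lysed in RIPA buffer (Tris.HCl pH 7.6, 1% NP-40, deoxycholate, 0.1% SDS) with protease inhibitors; equal protein was resolved on 10% SDS-PAGE, transferred to PVDF and immunoblotted. Band intensities were quantified and normalized to GAPDH.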

T1 sequence (P03372 whole entry): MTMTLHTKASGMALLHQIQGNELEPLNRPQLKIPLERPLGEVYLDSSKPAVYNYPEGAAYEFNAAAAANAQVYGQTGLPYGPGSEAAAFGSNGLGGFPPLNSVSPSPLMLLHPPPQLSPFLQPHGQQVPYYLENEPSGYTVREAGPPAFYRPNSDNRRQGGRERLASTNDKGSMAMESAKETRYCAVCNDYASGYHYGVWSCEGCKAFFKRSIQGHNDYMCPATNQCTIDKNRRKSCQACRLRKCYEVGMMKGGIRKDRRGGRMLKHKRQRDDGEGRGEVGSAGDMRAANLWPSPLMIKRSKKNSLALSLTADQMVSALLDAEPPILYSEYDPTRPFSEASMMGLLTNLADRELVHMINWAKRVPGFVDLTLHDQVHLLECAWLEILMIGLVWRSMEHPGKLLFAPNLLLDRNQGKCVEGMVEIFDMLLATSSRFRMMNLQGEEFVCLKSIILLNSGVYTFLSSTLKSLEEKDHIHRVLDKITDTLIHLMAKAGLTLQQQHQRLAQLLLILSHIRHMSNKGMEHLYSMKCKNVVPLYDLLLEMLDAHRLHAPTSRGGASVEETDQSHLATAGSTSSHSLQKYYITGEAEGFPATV

SMILES	DC50 (ER [1]) [nM]	Traditional Western Degradation Potency (ER [3])	pIC50 [2]
COc1c2c(cc3c1CN(C1CCC(=O)NC1=O)C3=O)CN(CC(=O)N1CCC3(CC1)CCN(c1ncc([C@@H]4c5[nH]c6ccccc6c5C[C@@H](C)N4CC(F)F)cn1)CC3)C2 (stereo partly drawn) [Compound B134, 3-(6-(2-(9-(5-((1R,3R)-2-(2,2-difluoroethyl)-3-methyl-2,3,4,9-tetrahydro-1H-pyrido[3,4-b]indol-1-yl)pyrimidin-2-yl)-3,9-diazaspiro[5.5]undecan-3-yl)-2-oxoethyl)-4-methoxy-1-oxo-3,5,6,7-tetrahydropyrrolo[3,4-f]isoindol-2(1H)-yl)piperidine-2,6-dione]			> 9.00
C[C@@H]1Cc2c([nH]c3ccccc23)[C@@H](c2cnc(N3CC(CCN4CCN5c6cc7c(cc6OC[C@@H]5C4)C(=O)N(C4CCC(=O)NC4=O)C7)C3)nc2)N1CC(F)F (stereo partly drawn) [Compound B131, 3-((S)-3-(2-(1-(5-((1R,3R)-2-(2,2-difluoroethyl)-3-methyl-2,3,4,9-tetrahydro-1H-pyrido[3,4-b]indol-1-yl)pyrimidin-2-yl)azetidin-3-yl)ethyl)-8-oxo-1,2,3,4,4a,5,8,10-octahydro-9H-pyrazino[1,2′:4,5][1,4]oxazino[2,3-f]isoindol-9-yl)piperidine-2,6-dione]			< 8.00
C[C@@H]1Cc2c([nH]c3ccccc23)[C@@H](c2cnc(N3CC4(CC(CN5CCN6c7cc8c(cc7OC[C@@H]6C5)C(=O)N(C5CCC(=O)NC5=O)C8)C4)C3)nc2)N1CC(F)F (stereo partly drawn) [Compound B133, 3-((S)-3-((2-(5-((1R,3R)-2-(2,2-difluoroethyl)-3-methyl-2,3,4,9-tetrahydro-1H-pyrido[3,4-b]indol-1-yl)pyrimidin-2-yl)-2-azaspiro[3.3]heptan-6-yl)methyl)-8-oxo-1,2,3,4,4a,5,8,10-octahydro-9H-pyrazino[1′,2′:4,5][1,4]oxazino[2,3-f]isoindol-9-yl)piperidine-2,6-dione]			8.00 to 9.00
C[C@@H]1Cc2c([nH]c3ccccc23)[C@@H](c2cnc(N3CC4(CCC(N5CCN6c7cc8c(cc7OC[C@@H]6C5)C(=O)N(C5CCC(=O)NC5=O)C8)CC4)C3)nc2)N1CC(F)F (stereo partly drawn) [Compound 1B32, 3-((S)-3-(2-(5-((1R,3R)-2-(2,2-difluoroethyl)-3-methyl-2,3,4,9-tetrahydro-1H-pyrido[3,4-b]indol-1-yl)pyrimidin-2-yl)-2-azaspiro[3.5]nonan-7-yl)-8-oxo-1,2,3,4,4a,5,8,10-octahydro-9H-pyrazino[1′,2′:4,5][1,4]oxazino[2,3-f]isoindol-9-yl)piperidine-2,6-dione]			< 8.00

Now from value to compound, other results behind:

DC50 (ER [1]) [nM]	Traditional Western Degradation Potency (ER [3])	SMILES	pIC50 [2]
< 10		C[C@@H]1Cc2c([nH]c3ccccc23)[C@@H](c2cnc(N3CCC4(CC3)CN(CC(=O)N3CCN5c6ccc7c(c6OC[C@H]5C3)CN(C3CCC(=O)NC3=O)C7=O)C4)nc2)N1CC(F)(F)F (stereo partly drawn) [Compound B175, 3-((R)-7-(2-(7-(5-((1R,3R)-3-methyl-2-(2,2,2-trifluoroethyl)-2,3,4,9-tetrahydro-1H-pyrido[3,4-b]indol-1-yl)pyrimidin-2-yl)-2,7-diazaspiro[3.5]nonan-2-yl)acetyl)-1-oxo-1,3,5,5a,6,7,8,9-octahydro-2H-pyrazino[1′,2′:4,5][1,4]oxazino[2,3-e]isoindol-2-yl)piperidine-2,6-dione]	8.00 to 9.00
10 to 100		C[C@@H]1Cc2c([nH]c3ccccc23)[C@@H](c2cnc(N3CC4(CCC(CN5CCN6c7ccc8c(c7OC[C@H]6C5)CN(C5CCC(=O)NC5=O)C8=O)CC4)C3)nc2)N1CC(F)(F)CO (stereo partly drawn) [Compound B154, 3-((R)-7-((2-(5-((1R,3R)-2-(2,2-difluoro-3-hydroxypropyl)-3-methyl-2,3,4,9-tetrahydro-1H-pyrido[3,4-b]indol-1-yl)pyrimidin-2-yl)-2-azaspiro[3.5]nonan-7-yl)methyl)-1-oxo-1,3,5,5a,6,7,8,9-octahydro-2H-pyrazino[1′,2′:4,5][1,4]oxazino[2,3-e]isoindol-2-yl)piperidine-2,6-dione]	8.00 to 9.00
10 to 100		C[C@@H]1Cc2c([nH]c3ccccc23)[C@@H](c2cnc(N3CCC4(CC3)CC(N3CCN5c6ccc7c(c6OC[C@H]5C3)CN(C3CCC(=O)NC3=O)C7=O)CO4)nc2)N1CC(C)(C)F (stereo partly drawn) [Compound B165, 3-((5aR)-7-(8-(5-((1R,3R)-2-(2-fluoro-2-methylpropyl)-3-methyl-2,3,4,9-tetrahydro-1H-pyrido[3,4-b]indol-1-yl)pyrimidin-2-yl)-1-oxa-8-azaspiro[4.5]decan-3-yl)-1-oxo-1,3,5,5a,6,7,8,9-octahydro-2H-pyrazino[1′,2′:4,5][1,4]oxazino[2,3-e]isoindol-2-yl)piperidine-2,6-dione]	8.00 to 9.00
10 to 100		C[C@@H]1Cc2c([nH]c3ccccc23)[C@@H](c2c(F)cc(N3CCC(C(=O)N4CCN5c6ccc7c(c6OC[C@H]5C4)CN(C4CCC(=O)NC4=O)C7=O)CC3)cc2F)N1CC(C)(F)F (mixture of isomers) [Compound B252, 3-((RS)-7-(1-(4-((1R,3R)-2-(2,2-difluoropropyl)-3-methyl-2,3,4,9-tetrahydro-1H-pyrido[3,4-b]indol-1-yl)-3,5-difluorophenyl)piperidine-4-carbonyl)-1-oxo-1,3,5,5a,6,7,8,9-octahydro-2H-pyrazino[1′,2′:4,5][1,4]oxazino[2,3-e]isoindol-2-yl)piperidine-2,6-dione]	
> 100		C[C@@H]1Cc2c([nH]c3ccccc23)[C@@H](c2c(F)cc(N3CCN(CC(=O)N4CCN5c6ccc7c(c6OC[C@H]5C4)CN(C4CCC(=O)NC4=O)C7=O)CC3)cc2F)N1CC(F)F (stereo partly drawn) [Compound B152, 3-((R)-7-(2-(4-(4-((1R,3R)-2-(2,2-difluoroethyl)-3-methyl-2,3,4,9-tetrahydro-1H-pyrido[3,4-b]indol-1-yl)-3,5-difluorophenyl)piperazin-1-yl)acetyl)-1-oxo-1,3,5,5a,6,7,8,9-octahydro-2H-pyrazino[1′,2′:4,5][1,4]oxazino[2,3-e]isoindol-2-yl)piperidine-2,6-dione]	
10 to 100		COc1cc(N2CCC3(CC2)CC(CN2CCN4c5ccc6c(c5OC[C@H]4C2)CN(C2CCC(=O)NC2=O)C6=O)CO3)ccc1[C@@H]1c2[nH]c3ccccc3c2C[C@@H](C)N1CC(C)(C)F (stereo partly drawn) [Compound B265, 3-((5aR)-7-((8-(4-((1R,3R)-2-(2-fluoro-2-methylpropyl)-3-methyl-2,3,4,9-tetrahydro-1H-pyrido[3,4-b]indol-1-yl)-3-methoxyphenyl)-1-oxa-8-azaspiro[4.5]decan-3-yl)methyl)-1-oxo-1,3,5,5a,6,7,8,9-octahydro-2H-pyrazino[1′,2′:4,5][1,4]oxazino[2,3-e]isoindol-2-yl)piperidine-2,6-dione]	
	C (“C”: >100 nM)	C[C@@H]1Cc2c([nH]c3ccccc23)[C@@H](c2c(F)cc(N3CC(F)(C(=O)N4CCC(F)(CN5Cc6cc7c(cc6C5)C(=O)N(C5CCC(=O)NC5=O)C7=O)CC4)C3)cc2F)N1CC(F)F (stereo partly drawn) [Compound B75, 6-((1-(1-(4-((1R,3R)-2-(2,2-difluoroethyl)-3-methyl-2,3,4,9-tetrahydro-1H-pyrido[3,4-b]indol-1-yl)-3,5-difluorophenyl)-3-fluoroazetidine-3-carbonyl)-4-fluoropiperidin-4-yl)methyl)-2-(2,6-dioxopiperidin-3-yl)-6,7-dihydropyrrolo[3,4-f]isoindole-1,3(2H,5H)-dione]	
